In general, LD50 refers to the dose expected to kill half of the subjects tested. Lower therefore signals a more toxic substance.

One data set concerns Bac. cereus ATCC 9634. As to the kind of experiment: Minimum inhibitory concentration by the broth dilution method. Format: cell-based. The note with it: Bacillus cereus, ATCC9634; Bac. cereus ATCC 9634, broth dilution; read-out: Minimum inhibitory concentration (MIC). An excerpt:
(§1) (1) MA 144-M1 and MA 144-M2 have antimicrobial activity against various kinds of microorganisms.
In general terms: Dilution methods test growth across graded concentrations, often in twofold steps.

Data set [1] concerns Bac. megaterium NRRL B-938. Described as above. Format: cell-based. The note with it: Priestia megaterium, NRRLB938; Bac. megaterium NRRL B-938, broth dilution; read-out: Minimum inhibitory concentration (MIC).
From the text: as §1

The next data set concerns Bac. subtilis ATCC 6633. The data set is described as above. Format: cell-based. The note with it: Bacillus subtilis, ATCC6633; Bac. subtilis ATCC 6633, broth dilution; read-out: Minimum inhibitory concentration (MIC).
From the text: as §1

The next data set has as its system Can. albicans IAM 4905. Described as above. Format: cell-based. The following applies: Candida albicans, IAM4905; Can. albicans IAM 4905, broth dilution; read-out: Minimum inhibitory concentration (MIC).
From the text: as §1

The next data set deals with Can. tropicalis IAM 4942. The description is as above. The following applies: Candida tropicalis, IAM4942; Can. tropicalis IAM 4942, broth dilution; read-out: Minimum inhibitory concentration (MIC). Format: cell-based.
From the text: as §1

A further data set concerns Cory. bovis. The description is as above. Format: cell-based. The note with it: Corynebacterium bovis; Cory. bovis, broth dilution; read-out: Minimum inhibitory concentration (MIC).
From the text: as §1

In a further data set the test system is Mic. flavus. The data set is described as above. The note with it: Micrococcus flavus; Mic. flavus, broth dilution; read-out: Minimum inhibitory concentration (MIC). Format: cell-based.
From the text: as §1

The test system of data set [2] is Mycobact. smegmatis ATCC 607. Described as above. The following applies: Mycobact. smegmatis ATCC 607, broth dilution; read-out: Minimum inhibitory concentration (MIC). Format: cell-based.
From the text: as §1

In the next data set the test system is Proteus morganii. Described as above. Format: cell-based. The note with it: Morganella morganii; Proteus morganii (the Institute for Infectious Diseases), broth dilution; read-out: Minimum inhibitory concentration (MIC).
From the text: as §1

In data set [3] the test system is Ps. fluorescens NIH JB-254. Described as above. Format: cell-based. The note with it: Pseudomonas fluorescens, NIHJB254; Ps. fluorescens NIH JB-254, broth dilution; read-out: Minimum inhibitory concentration (MIC).
From the text: as §1

Another data set concerns Sarcina lutea ATCC 341. The description is as above. Format: cell-based. The note with it: Micrococcus luteus, ATCC341; Sarcina lutea ATCC 341, broth dilution; read-out: Minimum inhibitory concentration (MIC).
From the text: as §1

For the next data set, the system named is Staph. aureus FDA 209P. The data set is described as above. The following applies: Staphylococcus aureus, FDA209P; Staph. aureus FDA 209P, broth dilution; read-out: Minimum inhibitory concentration (MIC). Format: cell-based.
From the text: as §1

The next data set has as its system Staph. aureus Smith. The data set is described as above. The following applies: Staphylococcus aureus; Staph. aureus Smith, broth dilution; read-out: Minimum inhibitory concentration (MIC). Format: cell-based.
From the text: as §1

The next data set concerns Strept. pyogenes NY 5. Described as above. Format: cell-based. The following applies: Streptococcus pyogenes, NY5; Strept. pyogenes NY 5, broth dilution; read-out: Minimum inhibitory concentration (MIC).
From the text: as §1

The next data set has as its system L1210. The data set is described as follows: Therapeutic effectiveness on L1210-bearing mice. The note with it: intraperitoneally, day 0 to day 10, CDF1-L1210. Format: in vivo. As for the experimental part:
(a) Therapeutic effectiveness on L1210-bearing mice
Drug was administered intraperitoneally

For a further data set, the system named is P388. As to the kind of experiment: Therapeutic effectiveness on P388-bearing mice. The note with it: intraperitoneally, day 1 to day 9, CDF1-P388. Format: in vivo. As for the experimental part: (b) Therapeutic effectiveness on P388-bearing mice
Drug was administered intraperitonally

A further data set deals with Sarcoma 180. The data set is described as follows: Therapeutic effectiveness on Sarcoma 180 solid tumor. The note with it: intraperitoneally, day 1 to day 10; for Weight of tumor: control 1.68. Format: in vivo, dd mice. As for the experimental part: (c) Therapeutic effectiveness on Sarcoma 180 solid tumor
dd mice were inoculated with 2×10^6 cells of Sarcoma 180, and drug was administered intraperitoneally from day 1 to day 10.

Data set [4] can be described thus: in vivo. The following applies: Mouse.
Data set [5] is described as follows: in vivo. The following applies: Rat.
The test system of data set [6] is L1210 cells. As to the kind of experiment: Cytotoxicity: growth of cultured L1210 cells. Format: cell-based, mice.
For data set [7], the system named is L1210 cells. As to the kind of experiment: RNA synthesis in cultured L1210 cells. Format: cell-based, mice. The following applies: L1210 cells, in words. The procedure:
In this experiment, L1210 cells were inoculated in RPMI 1640 medium (Nissui, Roswell Park Memorial Institute 1640) containing 10% calf serum and cultivated at 37° C. for 3 days in a CO2 incubator, and MA 144-M1, MA 144-M2 and ^14 C-precursor were added at various concentrations. Effects on the synthesis of protein, RNA and DNA were indicated by the 50% inhibition concentration (μg./ml.) as shown in the following table.

The subject of the next data set is gram-positive bacteria. The data set is described as follows: Antimicrobial activity against gram-positive bacteria. Format: cell-based. The note with it: in words.
From the text: as §1

A further data set in a line: Antitumor activity. Format: in vivo. The note with it: in words.
A short description of another data set: Toxicity. The following applies: in words.
The nature of data set [8]: Basicity and lipophilicity.

≈ marks a conversion by molar mass, not a printed value. Structures can show the parent of a compound that is named as a salt.

With `CCC1(O)CC(OC2CC(N(C)C)C(OC3CC(O)C(OC4CCC(O)C(C)O4)C(C)O3)C(C)O2)c2c(cc3c(c2O)C(=O)c2c(O)cccc2C3=O)C1C(=O)OC` (centres unmarked) [MA 144-M1 hydrochloride salt], in the data set “Solubility”, the “solubility: slightly soluble in” value was “slightly soluble in acetone and ethyl acetate”; the “solubility: soluble in” value was “soluble in water, methanol and chloroform”.
With `CCC1(O)CC(OC2CC(N(C)C)C(OC3CC(O)C(OC4CCC(O)C(C)O4)C(C)O3)C(C)O2)c2c(cc3c(c2O)C(=O)c2c(O)ccc(O)c2C3=O)C1C(=O)OC` (centres unmarked) [MA 144-M2], the MIC stood at 0.05 µg/mL (≈ 0.0602 µM) in the data set with Bac. cereus ATCC 9634; 0.78 µg/mL (≈ 0.94 µM) in [1]; 0.05 µg/mL (≈ 0.0602 µM) in the data set with Bac. subtilis ATCC 6633; 50 µg/mL (≈ 60.2 µM) in the data set on Can. albicans IAM 4905; 100 µg/mL (≈ 120 µM) in the data set on Can. tropicalis IAM 4942; 0.1 µg/mL (≈ 0.12 µM) in the data set on Cory. bovis. In addition, the MIC is 0.2 µg/mL (≈ 0.241 µM) in the data set on Mic. flavus; 1.25 µg/mL (≈ 1.51 µM) in [2]; more than 100 µg/mL in the data set on Proteus morganii; more than 100 µg/mL in data set [3]; 0.05 µg/mL (≈ 0.0602 µM) with Sarcina lutea ATCC 341; 0.78 µg/mL (≈ 0.94 µM) with Staph. aureus FDA 209P. Further, the values for the MIC with Staph. aureus Smith and in the data set with Strept. pyogenes NY 5 were 0.1 µg/mL (≈ 0.12 µM) and 0.63 µg/mL (≈ 0.759 µM), respectively. Moreover, the “Prolongation of the survival time” value amounted to 116% with L1210 (0.156 mg/kg/day); 144% with L1210 (0.313 mg/kg/day); 192% with L1210 (0.625 mg/kg/day); 200% in the data set with L1210 (1.25 mg/kg/day); 85% in the data set with L1210 (2.5 mg/kg/day); 46% in the data set with L1210 (5 mg/kg/day). Moreover, the “Prolongation of the survival time” value in the data set on P388 (0.313 mg/kg/day) is 125%; in the data set on P388 (0.625 mg/kg/day), 148%; in the data set on P388 (1.25 mg/kg/day), 206%; with P388 (2.5 mg/kg/day) it was 83%; in the data set with P388 (5 mg/kg/day), 57%. Moreover, the “% Inhibition of tumor growth” value in the data set with Sarcoma 180 (0.3 mg/kg/day) is listed as 16%; in the data set with Sarcoma 180 (0.6 mg/kg/day), 46.5%; in the data set on Sarcoma 180 (1.25 mg/kg/day), 76.8%; with Sarcoma 180 (2.5 mg/kg/day), 83.3%. Besides, the Weight of tumor with Sarcoma 180 (0.3 mg/kg/day) is reported as 1.41 g; in the data set on Sarcoma 180 (0.6 mg/kg/day) it was 0.90 g; in the data set with Sarcoma 180 (1.25 mg/kg/day) it was 0.39 g; with Sarcoma 180 (2.5 mg/kg/day), 0.28 g; in the data set with Sarcoma 180 (5 mg/kg/day) it was “toxic”. The LD50 in “in vivo [4]” (ip) is 12.5 mg/kg; in the data set “in vivo [4]” (iv), 12 to 20 mg/kg; in “in vivo [5]” (ip) it was 10 to 15 mg/kg; in “in vivo [5]” (iv), 10 to 15 mg/kg. Besides, in the data set with L1210 cells [6] (Mus musculus, 72 h, cultured L1210 cells, 37° C., 3 days, read-out: ID50, Growth), the IC50 was 0.05 µg/mL (≈ 0.0602 µM). In addition, the “inhibition of the growth of cultured L1210 cells” value in the data set with L1210 cells [6] (at the low concentration, in words) is reported as “inhibited markedly”. Also, the “inhibition of RNA synthesis” value in the data set with L1210 cells [7] was “completely inhibited RNA synthesis”. The “antimicrobial activity against gram-positive bacteria” value in the data set on gram-positive bacteria is “show antimicrobial activity against gram-positive bacteria”. The antitumor activity result in the data set “Antitumor activity” is given as “marked antitumor activity”. The toxicity result in “Toxicity” was “low toxicity”. Besides, the basicity result in data set [8] was “Weakly basic”.

The values are drawn from patent US4204038A, “Process for preparing antibiotics MA 144-M1 and MA 144-M2” (Zaidan Hojin Biseibutsu Kagaku Kenkyu Kai, priority 1976, dated 1980).
